Test results: US20250122147A1, “ARYL CYCLOHEXANEDIONE DERIVATIVE OR SALT THEREOF, PEST CONTROL AGENT CONTAINING SAME, AND METHOD FOR USE THEREOF” (ADEKA Corporation, priority 2021, published 2025)

Tests used:
Plutella xylostella = test: Insecticidal test against Plutella xylostella; settings: 500 ppm drug solution; Chinese cabbage seedlings with eggs immersed about 30 sec; six days after immersion; 25° C.
Excerpt: Six days after the immersion in the drug solution, the number of surviving insects was examined. […] In triplicate using 10 per plot.

Laodelphax striatellus = test: Insecticidal test against Laodelphax striatellus; settings: 500 ppm drug solution; rice seedlings immersed 30 seconds; three-instar insects; eight days after inoculation
[1] = tested on: Frankliniella occidentalis; test: Insecticidal test against Frankliniella occidentalis; settings: 500 ppm drug solution sprayed on Phaseolus vulgaris leaf pieces with hatched larvae; four days after treatment
Excerpt: [formula] • assessment criteria.
Female adult Frankliniella occidentalis were inoculated onto Phaseolus vulgaris leaf pieces, and after allowing them to lay eggs for one day, the female adults were removed. […] Four days after the treatment, the number of surviving larvae of this species was examined. […] In duplicate.

Dirofilaria immitis = test: Influence evaluation test on the growth of Dirofilaria immitis; settings: 168 h, read-out: development inhibition rate from the L3 stage larva to the L4-stage larva

Row | Compound | corrected mortality, rating of assessment (Plutella xylostella) | corrected mortality, rating of assessment (Laodelphax striatellus) | corrected mortality, rating of assessment [1] | inhibition at 10 µM (Dirofilaria immitis) [%]
1 | O=C1CC(c2ccc(C(F)(F)F)cc2)CC(O)=C1C(=O)Nc1ccc(OC(F)(F)F)cc1 (stereo not shown) [1-9] | D or higher | D or higher | D or higher | –
2 | O=C1CC(c2ccc(C(F)(F)F)cc2)CC(O)=C1C(=O)Nc1nccs1 (stereo not shown) [1-47, 5-hydroxy-3-oxo-N-(thiazol-2-yl)-4′-(trifluoromethyl)-1,2,3,6-tetrahydro-[1,1′-biphenyl]-4-carboxamide] | – | – | – | ≥ 50
3 | O=C1CC(c2ccc(C(F)(F)F)cc2)CC(O)=C1C(=O)Nc1ccc(F)cn1 (stereo not shown) [1-48, N-(5-fluoropyridin-2-yl)-5-hydroxy-3-oxo-4′-(trifluoromethyl)-1,2,3,6-tetrahydro-[1,1′-biphenyl]-4-carboxamide] | D or higher | – | – | ≥ 50
4 | O=C1CC(c2ccc(C(F)(F)F)nc2)CC(O)=C1C(=O)Nc1ccc(F)cc1 (stereo not shown) [1-68] | D or higher | D or higher | – | –
5 | CC(C)NC(=S)C1=C(O)CC(c2ccc(C(F)(F)F)cc2)CC1=O (stereo not shown) [1-84] | – | D or higher | – | –
6 | CC1(c2ccc(C(F)(F)F)cc2)CC(=O)C(C(=O)Nc2ccc(F)cc2)=C(O)C1 (stereo not shown) [1-139] | – | – | D or higher | –
7 | O=C1CC(c2ccc(C(F)(F)F)nc2)CC(O)=C1C(=O)Nc1ccc(F)cn1 (stereo not shown) [1-149] | D or higher | D or higher | – | –
8 | O=C1CC(c2ccc(C(F)(F)F)nc2)CC(O)=C1C(=O)Nc1ccc(F)nc1 (stereo not shown) [1-150] | – | D or higher | D or higher | –
9 | O=C1CC(c2cncs2)CC(O)=C1C(=O)Nc1ccc(F)cc1 (stereo not shown) [1-152] | D or higher | D or higher | – | –
10 | O=C1CC(c2ccc(Br)cn2)CC(O)=C1C(=O)Nc1ccc(F)cc1 (stereo not shown) [1-161] | D or higher | D or higher | – | –
11 | C[S+]([O-])c1ccc(C2CC(=O)C(C(=O)Nc3ccc(F)cn3)=C(O)C2)cc1 (stereo not shown) [1-164] | D or higher | D or higher | – | –
12 | O=C1CC(c2ccc(C(F)(F)F)cc2)CC(SCc2ccccc2)=C1C(=O)Nc1ccc(F)cc1 (stereo not shown) [1-225] | D or higher | D or higher | – | –
13 | CONC1=C(C(=O)Nc2ccc(F)cc2)C(=O)CC(c2ccc(C(F)(F)F)cc2)C1 (stereo not shown) [1-227, N-(4-fluorophenyl)-5-(methoxyamino)-3-oxo-4′-(trifluoromethyl)-1,2,3,6-tetrahydro-[1,1′-biphenyl]-4-carboxamide] | – | – | – | ≥ 50
14 | O=C1CC(c2ccc(C(F)(F)F)nc2)CC(O)=C1C(=S)Nc1ccc(F)cn1 (stereo not shown) [1-231] | D or higher | – | – | –
15 | CS(=O)(=O)c1ccc(C2CC(=O)C(C(=O)Nc3ccc(Cl)cc3)=C(O)C2)cc1 (stereo not shown) [1-232] | D or higher | – | – | –
16 | C[S+]([O-])c1ccc(C2CC(=O)C(C(=O)Nc3ccc(Cl)cc3)=C(O)C2)cc1 (stereo not shown) [1-233] | D or higher | – | – | –
17 | CSc1ccc(C2CC(=O)C(C(=O)Nc3ccc(Cl)cc3)=C(O)C2)cc1 (stereo not shown) [1-234] | D or higher | – | – | –
18 | O=C1CC(c2ccc(SC(F)(F)F)cc2)CC(O)=C1C(=O)Nc1ccc(Cl)cc1 (stereo not shown) [1-235] | D or higher | – | – | –
